Measured values published in ChEMBL document CHEMBL4483862, “Open-source discovery of chemical leads for next-generation chemoprotective antimalarials” (2018).

Test system: Plasmodium berghei
Assay: Luciferase/luciferin-expressing antifolate-resistant parasites were used to infect a culture of HepG2 cells that were pre-incubated with compounds. Infected hepatocytes emit light due to the luciferase reaction. Assay results are presented as the percent inhibition of light emission compared to control. […]
Type: functional
Conditions: sporozoite; for IC90: read-out: LUCIFERASE INFECTION ASSAY - IC90
[1] = read-out: LUCIFERASE INFECTION ASSAY - IC50

Structure (SMILES)	IC90	IC50 [1]	also measured
Cc1ccnc(NC(=O)c2ccc(C3SCCCS3)cc2)c1	1.57 µM	–	IC50 (FFLUC_HILL_SLOPE 0.47, FFLUC_R_SQUARED 0.912, PBLUC_HILL_SLOPE 0.485, PBLUC_R_SQUARED 0.898, read-out: LUCIFERASE INFECTION ASSAY - IC50): 0.0169 µM
Cc1cccc(-c2nc3ccnc(Nc4ccc(C(C)C)cc4)c3[nH]2)c1	> 10 µM	–	IC50 (HEPG2TOX_HILL_SLOPE 8.42, HEPG2TOX_R_SQUARED 0.9, PBLUC_HILL_SLOPE 13.4, PBLUC_R_SQUARED 0.519, read-out: LUCIFERASE INFECTION ASSAY - IC50): 8.58 µM
O=C(Nc1ccccc1Sc1ncc([N+](=O)[O-])s1)c1cccs1	> 9.08 µM	–	IC50 (FFLUC_HILL_SLOPE 1.44, FFLUC_R_SQUARED 0.479, read-out: LUCIFERASE INFECTION ASSAY - IC50): > 9.08 µM
O=C(COC(=O)Cc1ccsc1)Nc1cc(Cl)ccc1-n1cncn1	> 10 µM	> 10 µM	–
CCOc1ccc(CN(C)CC(=O)NCCc2ccc(S(N)(=O)=O)cc2)cc1	> 10 µM	–	IC50 (HEPG2TOX_HILL_SLOPE 0.961, HEPG2TOX_R_SQUARED 0.961, PBLUC_HILL_SLOPE 1.57, PBLUC_R_SQUARED 0.525, read-out: LUCIFERASE INFECTION ASSAY - IC50): 3.65 µM
Cc1nccn1Cc1cccc(CNS(=O)(=O)c2ccc3ccccc3c2)c1	> 10 µM	> 10 µM	–
CCCCNCCCCOc1ccc(C)cc1C(C)(C)C	> 10 µM	–	IC50 (PBLUC_HILL_SLOPE 18.2, PBLUC_R_SQUARED 0.163, read-out: LUCIFERASE INFECTION ASSAY - IC50): 8.89 µM
CC(C)c1ccc(N(C(=O)CC(c2ccccc2)c2ccccc2)c2nc3ccccc3s2)cc1	> 10 µM	> 10 µM	–
COc1ccc(C2c3ccsc3CCN2S(=O)(=O)c2ccc(F)c(Cl)c2)cc1 (stereo not given)	> 7.54 µM	–	IC50 (PBLUC_HILL_SLOPE 1.37, PBLUC_R_SQUARED 0.631, read-out: LUCIFERASE INFECTION ASSAY - IC50): 3.09 µM
CCN1C(=O)N(CCCc2cccnc2)C(=O)C12CCN(Cc1cccc(C(F)(F)F)c1)CC2	> 6.95 µM	–	IC50 (HEPG2TOX_HILL_SLOPE 2.53, HEPG2TOX_R_SQUARED 0.847, PBLUC_HILL_SLOPE 12.5, PBLUC_R_SQUARED 0.0898, read-out: LUCIFERASE INFECTION ASSAY - IC50): 6.59 µM
N#Cc1ccc(OCC(=O)c2ccc(OC(F)F)cc2OC(F)F)cc1	> 10 µM	> 10 µM	–
O=C(NCCOc1ccccc1F)NCC1CC1	> 10 µM	> 10 µM	–
CCOc1ccccc1NC(=O)CN(C)S(=O)(=O)c1ccc(OC)c(C)c1	> 8.41 µM	> 8.41 µM	–
CN(Cc1ccc(Cl)cc1Cl)C(=O)NCc1ccc(S(=O)(=O)N2CCCCC2)cc1	> 10 µM	–	IC50 (PBLUC_HILL_SLOPE 15.3, PBLUC_R_SQUARED 0.472, read-out: LUCIFERASE INFECTION ASSAY - IC50): 9.36 µM
O=C(CCc1cccnc1)Nc1nc(-c2ccc3c(c2)OCCO3)cs1	> 10 µM	> 10 µM	–
COc1cccc(C2c3sc(=O)[nH]c3SC3C4CCC(C4)C23)c1O (stereo not given)	> 9.13 µM	–	IC50 (FFLUC_HILL_SLOPE 0.571, FFLUC_R_SQUARED 0.432, read-out: LUCIFERASE INFECTION ASSAY - IC50): > 9.13 µM
CC(NC(=O)COC(=O)CSc1ccc(Br)c2cccc(Cl)c12)c1ccccc1 (stereo not given)	> 10 µM	–	IC50 (FFLUC_HILL_SLOPE 11.2, FFLUC_R_SQUARED 0.0748, PBLUC_HILL_SLOPE 1.42, PBLUC_R_SQUARED 0.0165, read-out: LUCIFERASE INFECTION ASSAY - IC50): > 10 µM
Cc1ccc(C)c(NC(=O)CN(C)C(=O)CN2CCN(c3ccccc3)CC2)c1	> 10 µM	> 10 µM	–
CN(C)C(=O)c1ccc(-c2ccnc3n[nH]c(-c4cccc(Cl)c4)c23)cc1	> 10 µM	4.64 µM	–
CNc1nc2cnc(Nc3ccc(OC(F)(F)F)cc3)cc2n1Cc1ccccc1	5.21 µM	–	IC50 (HEPG2TOX_HILL_SLOPE 3.1, HEPG2TOX_R_SQUARED 0.978, PBLUC_HILL_SLOPE 7.5, PBLUC_R_SQUARED 0.303, read-out: LUCIFERASE INFECTION ASSAY - IC50): 3.88 µM
CC(C)(C)NC(=S)Nc1cc(C(F)(F)F)c(Cl)cc1Cl	> 9.56 µM	> 9.56 µM	–
O=C(CSCCc1nc(-c2ccc(Cl)cc2)cs1)N/N=C/c1ccccc1	3.43 µM	–	IC50 (PBLUC_HILL_SLOPE 13.2, PBLUC_R_SQUARED 0.406, read-out: LUCIFERASE INFECTION ASSAY - IC50): 2.9 µM
COC(=O)c1c(C)[nH]c(C(=O)C(C)OC(=O)Cn2c(C(F)(F)F)nc3ccccc32)c1C (stereo not given)	> 10 µM	–	IC50 (HEPG2TOX_HILL_SLOPE 1.23, HEPG2TOX_R_SQUARED 0.914, read-out: LUCIFERASE INFECTION ASSAY - IC50): > 10 µM

Structure (SMILES)	IC90	IC50 [1]	also measured
COc1ccc(-c2cnc3cnc(-c4ccccc4C)cn23)cc1	0.0475 µM	–	IC50 (HEPG2TOX_HILL_SLOPE 0.359, HEPG2TOX_R_SQUARED 0.561, PBLUC_HILL_SLOPE 8.88, PBLUC_R_SQUARED 0.713, read-out: LUCIFERASE INFECTION ASSAY - IC50): 0.0371 µM
COc1ccc(-n2c(C)cc(/C=C(\C#N)C(=O)NCC(c3cccs3)N3CCOCC3)c2C)cc1 (stereo not given)	> 10 µM	–	IC50 (PBLUC_HILL_SLOPE 6.75, PBLUC_R_SQUARED 0.0585, read-out: LUCIFERASE INFECTION ASSAY - IC50): > 10 µM
Cc1nn(-c2ccccc2)c(C)c1C(=O)Nc1nc2c(s1)CCCC2	4.22 µM	–	IC50 (HEPG2TOX_HILL_SLOPE 2.86, HEPG2TOX_R_SQUARED 0.355, PBLUC_HILL_SLOPE 1.92, 0.823, PBLUC_R_SQUARED 0.870, 0.934, read-out: LUCIFERASE INFECTION ASSAY - IC50): 0.574 µM
O=C1C=CC(=O)N1Cc1cccs1	7.49 µM	–	IC50 (HEPG2TOX_HILL_SLOPE 35.1, HEPG2TOX_R_SQUARED 0.828, PBLUC_HILL_SLOPE 12.7, PBLUC_R_SQUARED 0.168, read-out: LUCIFERASE INFECTION ASSAY - IC50): 6.3 µM
CCN(CC)S(=O)(=O)c1ccc(OC(C)C)c(NC(=O)c2cc(C3CC3)nc3c2cnn3C(C)C)c1	> 10 µM	–	IC50 (FFLUC_HILL_SLOPE 16.5, FFLUC_R_SQUARED 0.255, read-out: LUCIFERASE INFECTION ASSAY - IC50): > 10 µM
Cc1ccc(S(=O)(=O)N(C)CC(=O)N(C)Cc2ccccc2OC(F)(F)F)cc1C	> 10 µM	> 10 µM	–
Cc1ccc(S(=O)(=O)Nc2cc(SCC(=O)O)c(O)c3ccccc23)cc1	> 10 µM	–	IC50 (PBLUC_HILL_SLOPE 1.74, PBLUC_R_SQUARED 0.143, read-out: LUCIFERASE INFECTION ASSAY - IC50): > 10 µM
CCCC1(CCC)NC(=O)N(CC(=O)/N=c2\sc3ccccc3n2C)C1=O	> 10 µM	–	IC50 (HEPG2TOX_HILL_SLOPE 1.17, HEPG2TOX_R_SQUARED 0.854, PBLUC_HILL_SLOPE 1.78, PBLUC_R_SQUARED 0.281, read-out: LUCIFERASE INFECTION ASSAY - IC50): 4.54 µM
COc1ccc(Cl)cc1COC(=O)COc1ccc2c(c1)CCC(=O)N2	> 10 µM	–	IC50 (PBLUC_HILL_SLOPE 0.441, PBLUC_R_SQUARED 0.194, read-out: LUCIFERASE INFECTION ASSAY - IC50): > 10 µM
O=C(CSc1nnc(-c2ccncc2)[nH]1)N1N=C(c2cccs2)CC1c1cccs1 (stereo not given)	> 10 µM	–	IC50 (HEPG2TOX_HILL_SLOPE 0.148, HEPG2TOX_R_SQUARED 0.0376, read-out: LUCIFERASE INFECTION ASSAY - IC50): > 10 µM
Cc1ccc2nc(NC(=O)c3ccc(OCc4nccn4C)cc3)sc2c1	> 10 µM	> 10 µM	–
O=[N+]([O-])c1ccccc1NC(=S)N/N=C/c1ccc(O)c(O)c1	8.44 µM	–	IC50 (FFLUC_HILL_SLOPE 1.09, FFLUC_R_SQUARED 0.362, HEPG2TOX_HILL_SLOPE 7.32, HEPG2TOX_R_SQUARED 0.0511, PBLUC_HILL_SLOPE 3.36, PBLUC_R_SQUARED 0.569, read-out: LUCIFERASE INFECTION ASSAY - IC50): 4.39 µM
Clc1ccc(-c2cnc3sc(NCCc4ccncc4)nn23)cc1	> 9.27 µM	> 9.27 µM	–
Cc1ccc(-n2nc(C)c(NC(=O)Cn3c(NCc4ccccc4)nc4ccccc43)c2C)cc1	> 10 µM	> 10 µM	–
Cc1ccc(NS(=O)(=O)c2ccc(C(=O)NNC(=O)COc3ccc(C#N)cc3)cc2)cc1	> 10 µM	> 10 µM	–
CCC1Oc2ccccc2C(=O)N(Cc2ccccc2F)C1=O (stereo not given)	> 10.5 µM	> 10.5 µM	–
Cc1cc(N2CCN(c3nc(C)cc(C)c3C#N)CC2)nc(C(C)C)n1	> 10 µM	> 10 µM	–
CCCCN=C1NN=C(C23CC4CC(CC(C4)C2)C3)C(C)S1 (stereo not given)	8.93 µM	–	IC50 (PBLUC_HILL_SLOPE 3.27, PBLUC_R_SQUARED 0.411, read-out: LUCIFERASE INFECTION ASSAY - IC50): 4.56 µM
Cn1ccc2cc(-c3cnc4cnc(-c5ccccc5Cl)cn34)ccc21	0.043 µM	–	IC50 (HEPG2TOX_HILL_SLOPE 0.673, HEPG2TOX_R_SQUARED 0.619, PBLUC_HILL_SLOPE 2.33, PBLUC_R_SQUARED 0.732, read-out: LUCIFERASE INFECTION ASSAY - IC50): 0.0168 µM
O=C1Nc2ccccc2/C1=C/c1cccn1-c1ccc(C(F)(F)F)cc1	> 9.31 µM	–	IC50 (PBLUC_HILL_SLOPE 2.37, PBLUC_R_SQUARED 0.071, read-out: LUCIFERASE INFECTION ASSAY - IC50): 5.82 µM
CC(C)[C@@H](CO)Nc1nccn2c(-c3cccc(OC(F)(F)F)c3)cnc12	6.18 µM	–	IC50 (HEPG2TOX_HILL_SLOPE 1.77, HEPG2TOX_R_SQUARED 0.938, PBLUC_HILL_SLOPE 1.99, PBLUC_R_SQUARED 0.624, read-out: LUCIFERASE INFECTION ASSAY - IC50): 2.05 µM
CCN(c1ccccc1)S(=O)(=O)c1ccc(C(=O)NC2CCCc3ccccc32)cc1 (stereo not given)	> 10 µM	> 10 µM	–
